Test results: patent publication US11759496B2, “Compounds and pharmaceutical use thereof in the treatment of cancer” (priority 2016, dated 2023)
Like-named read-outs stand apart in the source and are kept apart here. Each block holds one compound with its values, some of them ahead of it. Non-standard residues stand in square brackets, D forms with d. Residues, ends and D or L forms follow the SMILES beside them. *: point of attachment. NMeR = CN[C@@H](CCCNC(=N)N)C(=O)O; X1 = N=C(N)NCCC[C@H](CN)C(=O)*; β3hK = NCCCC[C@H](N)CC(=O)O; Nle = CCCC[C@H](N)C(=O)O

What was measured:
[1] = biological target: T1, CD47 (membrane preparation from MEC-1 cells) (Homo sapiens, UniProt Q08722); experiment: Binding affinity by biolayer interferometry (Octet RED96) on biotinylated MEC-1 cell membrane preparation; settings: NPD = Non Pertinent Data
T1 construct: MEC-1 cell membrane preparation were biotinylated with the EZ-Link NHS-PEG4-Biotin kit; endogenous in cells; host or cells: MEC-1 cells (membrane preparation)
T1 sequence (Q08722 19-323): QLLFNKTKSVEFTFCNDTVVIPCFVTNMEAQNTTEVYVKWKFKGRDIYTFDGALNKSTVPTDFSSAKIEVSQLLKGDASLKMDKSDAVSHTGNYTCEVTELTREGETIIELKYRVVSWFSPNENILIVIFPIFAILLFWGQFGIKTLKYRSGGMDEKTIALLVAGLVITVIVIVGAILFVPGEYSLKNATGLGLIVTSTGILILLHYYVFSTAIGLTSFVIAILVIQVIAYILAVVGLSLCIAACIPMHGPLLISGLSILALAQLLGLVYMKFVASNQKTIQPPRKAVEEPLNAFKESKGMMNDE
Protocol: The binding affinities of peptides for a membrane preparation from MEC-1 cells were measured by biolayer interferometry on an Octet RED96 System (Pall FortéBio Corp., Menlo Park, Calif.).
The binding affinities of peptides for a membrane preparation from MEC-1 cells were measured by biolayer interferometry on an Octet RED96 System (Pall FortéBio Corp., Menlo Park, Calif.). This system monitors interference of light reflected from two sources (an internal reflection surface and the liquid/solid interface of a fiber optic sensor) to measure the rate of binding of molecules to the biosensor surface.
MEC-1 cell membrane preparation were biotinylated with the EZ-Link NHS-PEG4-Biotin kit from Thermo-Scientific. Biotinylated membranes were then loaded onto SuperStreptavidin (SSA) biosensors (Pall FortéBio Corp.) at empirically determined concentrations.
In order to highlight the pharmacological properties of these peptides, a systematic SAR study by the development of a binding assay allowing to the assessment of the affinity of the 4N1K analogues to CD47 was initiated. […] An Ala-scan to identify the pharmacophores of 4N1K was implemented.
The binding affinities of peptides for a MEC-1 cells membrane preparation were measured by biolayer interferometry on an Octet RED96 System (Pall FortéBio Corp., Menlo Park, Calif.). This system monitors interference of light reflected from two sources (an internal reflection surface and the liquid/solid interface of a fiber optic sensor) to measure the rate of binding of molecules to the biosensor surface. MEC-1 cells membrane preparation is biotinylated with the EZ-Link NHS-PEG4-Biotin kit from Thermo-Scientific and excess biotin is removed using desalting column from Thermo-Scientific. Biotinylated membranes are then loaded onto SuperStreptavidin (SSA) biosensors (Pall FortéBio Corp.) at empirically determined concentrations. […] Typically, the biosensors were pre-equilibrated in PBS containing either biotinylated membranes or biocytine 100 μg/mL. Biosensors are then equilibrated in assay buffer for 10 min, brought to baseline in assay buffer for 60 sec. and transferred to wells containing peptide in dose-response (association for 120 sec. and dissociation for 300 sec.). The double reference with either membrane-loaded biosensors without any peptide dose-response or biocytine-loaded biosensors with each peptide dose-response were run in parallel for background signal double subtractions. Binding kinetics were calculated using the FortéBio Data Analysis v8.2 software.

[2] = biological target: T2, CD47 (NT.115-labeled membrane) (Homo sapiens, UniProt Q08722); experiment: Binding affinity by microscale thermophoresis (MST), NT.115-labeled membrane; settings: Table 2; average of at least three independent experiments; NPD = Non Pertinent Data
T2 construct: the concentration of the NT.115-labeled membrane was kept constant; endogenous in cells
T2 sequence (Q08722 19-323): as above
Protocol: For all experiments the concentration of the NT.115-labeled membrane was kept constant, while the concentrations of the ligand (peptide) was varied. After a short incubation time (5 min) the samples were loaded into MST premium glass capillaries and the MST analysis was performed using the Monolith NT.115.

[3] = test system: MEC-1 cells; experiment: MEC-1 cell death (PCD) after 2 h peptide treatment; type: cell-based; settings: for MEC-1 Cell Death (%) 2 h: Table 2, NPD = Non Pertinent Data; for MEC-1 Cell Death (%) 2 h, [peptides] = 200 μM: Table 3, 200 μM peptide
Protocol: Then the peptides structures were tested via NMR and X-ray. The peptides were also tested for their activity on MEC-1 and their KDs and Retention times on LCMS were determined.

[4] = Solubility of the peptides in water / aqueous buffer (NMR, CD samples); type: physicochemical
Protocol: CD spectra were recorded on a Jasco 815 spectropolarimeter (Jasco Inc., Easton, Md.) over the wavelength range 190-260 nm, at 0.2 nm intervals and 10 nm·min^−1 scan speed. Peptides were dissolved at 50 μM concentration in a 10 mM sodium phosphate buffer at pH 7.4, using 0.1 cm path length quartz cells (Hellma, Mullheim, Germany). CD spectra were deconvoluted with CDFriend program in order to estimate the peptide secondary structure content.
NMR experiments were recorded on a 500 MHz Bruker Avance III spectrometer (Wissembourg, France) equipped with a TCI cryoprobe. NMR samples were prepared in 50 mM sodium succinate buffer, pH 5, using 2 mM peptide concentration. Sodium 2,2-dimethyl-2-silapentane-d6-5-sulfonate (Sigma Aldrich) was added at 0.1 mM concentration for chemical shift calibration and measurement of the solubilized peptide concentration. NMR experiments were processed with TOPSPIN 2.1 software (Bruker) and spectra were analyzed with Sparky program. ^1H, ^13C and ^15N resonances were assigned using 2D ^1H-^1H TOCSY (DIPSI2 isotropic scheme of 70 ms duration), 2D ^1H-^1H ROESY (300 ms mixing time), 2D ^1H-^13C HSQC, 2D ^1H-^15N HSQC, and 2D ^1H-^13C HMBC spectra. The complete ^1H, ^13C and ^15N NMR assignments of peptides 4N1K, PKT2, PKHB1 and 4NGG are provided in Tables S1-S4 (supporting information). […] The chemical shift deviations of Ha protons and Cα carbons were calculated as the differences between observed chemical shifts and random coil values reported in water. The conformational analysis of thrombospondin-1 was carried out on the crystal structure of a C-terminal fragment of human thrombospondin-1 using Pymol (Schrödinger) and Procheck programs. Predictions of NMR chemical shifts on the X-ray structure were carried out using SHIFTX2 program.

[5] = test system: B-chronic lymphocytic leukemia (CLL) primary cells; settings: WO 2013/182650; cited from earlier work
[6] = Table 3, average of two or more measurements

SMILES: CCCC[C@H](NC(=O)[C@@H](NC(=O)[C@@H](NC(=O)[C@H](Cc1ccccc1)NC(=O)[C@H](Cc1ccccc1)NC(=O)[C@H](CCCNC(=N)N)N(C)C(=O)[C@H](N)CCCCN)C(C)C)C(C)C)C(=O)N[C@@H](Cc1c[nH]c2ccccc12)C(=O)N[C@@H](CCCCN)C(=O)N[C@H](CCCCN)C(=O)O [PKT16-FF, H-(D)K ψ(CONMe)R F F V V X W K (D)K-OH] (H-[dK][NMeR]FFVV[Nle]WK[dK]-OH)
solubility in water ([4]; water): low solubility in water

SMILES: CSCC[C@H](NC(=O)[C@H](C)NC(=O)[C@@H](NC(=O)[C@H](Cc1ccc(O)cc1)NC(=O)[C@H](Cc1ccccc1)NC(=O)[C@H](CCCNC(=N)N)NC(=O)[C@H](N)CCCCN)C(C)C)C(=O)N[C@@H](Cc1c[nH]c2ccccc12)C(=O)N[C@@H](CCCCN)C(=O)N[C@H](CCCCN)C(=O)O [V6/A, kRFYV(A)MWKk] (H-[dK]RFYVAMWK[dK]-OH; N-terminus and C-terminus assumed)
Kd (μM) [1, 6]: NPD
MEC-1 Cell Death (%) 2 h, [peptides] = 200 μM [3]: 30%

SMILES: CSCC[C@H](NC(=O)[C@@H](NC(=O)[C@@H](NC(=O)[C@H](Cc1ccc(O)cc1)NC(=O)[C@H](Cc1ccccc1)NC(=O)[C@H](CCCNC(=N)N)NC(=O)[C@H](N)CCCCN)C(C)C)C(C)C)C(=O)N[C@@H](C)C(=O)N[C@@H](CCCCN)C(=O)N[C@H](CCCCN)C(=O)O [W8/A, kRFYVVM(A)Kk] (H-[dK]RFYVVMAK[dK]-OH; N-terminus and C-terminus assumed)
Kd (μM) [1, 6]: NPD
MEC-1 Cell Death (%) 2 h, [peptides] = 200 μM [3]: 35%

The next lines start with results.

Kd (μM) (OR) ([1]; Table 2, average of at least three independent experiments): NPD
Kd (μM) (MST) [2]: NPD
solubility of peptide (in words) ([4]; aqueous buffer, NMR / CD samples): poorly soluble
SMILES: CSCC[C@H](NC(=O)[C@@H](NC(=O)[C@@H](NC(=O)[C@H](Cc1ccc(O)cc1)NC(=O)[C@H](Cc1ccccc1)NC(=O)[C@@H](CN)CCCNC(=N)N)C(C)C)C(C)C)C(=O)N[C@@H](Cc1c[nH]c2ccccc12)C(=O)N[C@@H](CCCCN)CC(=O)O [compound 3, (β^2hR)FYVVMW(β^3hK)] (X1-FYVVMW[β3hK]-OH)
MEC-1 Cell Death (%) 2 h [3]: NPD

Kd ([1]; Table 2, average of at least three independent experiments, read-out: Kd (μM) (OR)): 43 ± 21 µM
Kd ([1]; Table 3, average of two or more measurements, read-out: Kd): 43 ± 21 µM
SMILES: CSCC[C@H](NC(=O)[C@@H](NC(=O)[C@@H](NC(=O)[C@H](Cc1ccc(O)cc1)NC(=O)[C@H](Cc1ccccc1)NC(=O)[C@H](CCCNC(=N)N)NC(=O)[C@H](N)CCCCN)C(C)C)C(C)C)C(=O)N[C@@H](Cc1c[nH]c2ccccc12)C(=O)N[C@@H](CCCCN)C(=O)N[C@H](CCCCN)C(=O)O [PKHB1, reference compound]
MEC-1 Cell Death (%) 2 h [3]: 63%
MEC-1 Cell Death (%) 2 h, [peptides] = 200 μM [3]: 63%
Cell Death (MEC-1, 2 h) ([3]; Table 4): 78%
selective elimination of leukemic B-cells versus healthy B-lymphocytes [5]: specifically eliminates leukemic B-cells
